Patent publication US9376429B2, “Sodium channel blockers, preparation method thereof and use thereof” (Daewoong Pharmaceutical Co., Ltd., priority 2012, dated 2016)

Target: T1, sodium ion channel (Nav1.7) (Homo sapiens, UniProt Q15858)
T1 construct: host or cells: HEK293
Assay: Blocking effect against sodium ion channel (Nav1.7), IonFlux16 auto patch clamp, hNav1.7 HEK293 cells
Type: cell-based
Conditions: peak current after 50 seconds treatment, eight concentrations
Method: In order to measure the activities of the inventive compounds as antagonists, an experiment on a blocking effect against the sodium ion channel (Nav1.7) was carried out as follows.
The hNav1.7 HEK293 cell line used was a cell line having a human sodium ion channel 1.7 gene (type IX voltage-gated sodium channel alpha subunit) in human embryonic kidney (HEK) 293 cells and was purchased from Millipore. The medium used was prepared by adding 1% 100×NEAA and 10% heat inactivated FBS to DMEM F-12 and adding 1% P/S as an antibiotic thereto. G-418 as a […] was added during subculture, and the hNav1.7 HEK293 cells were cultured to a confluence of about 80% in a T75 flask in a 5% CO2 incubator at 37° C. for 2 or 3 days and detached from the flask by treatment with 0.25% trypsin solution. Then, the cells were collected by centrifugation and used in the experiment.
The compounds prepared in the Examples of the present invention were dissolved in dimethyl sulfoxide (DMSO) and used in the experiment. 90 mM and 10 mM DMSO stock solutions were prepared from each of the compounds and diluted in an extracellular solution (4 mM KCl, 138 mM NaCl, 1 mM MgCl2, 1.8 mM CaCl2, 5.6 mM glucose, 10 mM HEPES, pH 7.45) at various concentrations so that the final concentration of each compound in DMSO was 0.3% or less.
To measure the sodium ion channel blocking effect, an IonFlux16 Auto patch clamp system (Fluxion, Inc.) and a plate for exclusive use were used. The cells were distributed in an extracellular solution (4 mM KCl, 138 mM NaCl, 1 mM MgCl2, 1.8 mM CaCl2, 5.6 mM glucose, 10 mM HEPES, pH 7.45), and then dispensed in the specified region of the plate, and each of the prepared compound samples was diluted at various concentrations, and then dispensed in the specified region of the plate.
Specifically, eight concentrations per compound were set, and percent inhibition was determined by calculating the percentage of inhibition of the peak current, generated after treating the cells with each concentration of the compound for 50 seconds, relative to the peak current generated before treatment with the compound, and the IC50 value was calculated using the Sigma plot program. In Table 2 below, the percent inhibition of Nav1.7 is rated as follows: […]

T1 sequence (Q15858 whole entry): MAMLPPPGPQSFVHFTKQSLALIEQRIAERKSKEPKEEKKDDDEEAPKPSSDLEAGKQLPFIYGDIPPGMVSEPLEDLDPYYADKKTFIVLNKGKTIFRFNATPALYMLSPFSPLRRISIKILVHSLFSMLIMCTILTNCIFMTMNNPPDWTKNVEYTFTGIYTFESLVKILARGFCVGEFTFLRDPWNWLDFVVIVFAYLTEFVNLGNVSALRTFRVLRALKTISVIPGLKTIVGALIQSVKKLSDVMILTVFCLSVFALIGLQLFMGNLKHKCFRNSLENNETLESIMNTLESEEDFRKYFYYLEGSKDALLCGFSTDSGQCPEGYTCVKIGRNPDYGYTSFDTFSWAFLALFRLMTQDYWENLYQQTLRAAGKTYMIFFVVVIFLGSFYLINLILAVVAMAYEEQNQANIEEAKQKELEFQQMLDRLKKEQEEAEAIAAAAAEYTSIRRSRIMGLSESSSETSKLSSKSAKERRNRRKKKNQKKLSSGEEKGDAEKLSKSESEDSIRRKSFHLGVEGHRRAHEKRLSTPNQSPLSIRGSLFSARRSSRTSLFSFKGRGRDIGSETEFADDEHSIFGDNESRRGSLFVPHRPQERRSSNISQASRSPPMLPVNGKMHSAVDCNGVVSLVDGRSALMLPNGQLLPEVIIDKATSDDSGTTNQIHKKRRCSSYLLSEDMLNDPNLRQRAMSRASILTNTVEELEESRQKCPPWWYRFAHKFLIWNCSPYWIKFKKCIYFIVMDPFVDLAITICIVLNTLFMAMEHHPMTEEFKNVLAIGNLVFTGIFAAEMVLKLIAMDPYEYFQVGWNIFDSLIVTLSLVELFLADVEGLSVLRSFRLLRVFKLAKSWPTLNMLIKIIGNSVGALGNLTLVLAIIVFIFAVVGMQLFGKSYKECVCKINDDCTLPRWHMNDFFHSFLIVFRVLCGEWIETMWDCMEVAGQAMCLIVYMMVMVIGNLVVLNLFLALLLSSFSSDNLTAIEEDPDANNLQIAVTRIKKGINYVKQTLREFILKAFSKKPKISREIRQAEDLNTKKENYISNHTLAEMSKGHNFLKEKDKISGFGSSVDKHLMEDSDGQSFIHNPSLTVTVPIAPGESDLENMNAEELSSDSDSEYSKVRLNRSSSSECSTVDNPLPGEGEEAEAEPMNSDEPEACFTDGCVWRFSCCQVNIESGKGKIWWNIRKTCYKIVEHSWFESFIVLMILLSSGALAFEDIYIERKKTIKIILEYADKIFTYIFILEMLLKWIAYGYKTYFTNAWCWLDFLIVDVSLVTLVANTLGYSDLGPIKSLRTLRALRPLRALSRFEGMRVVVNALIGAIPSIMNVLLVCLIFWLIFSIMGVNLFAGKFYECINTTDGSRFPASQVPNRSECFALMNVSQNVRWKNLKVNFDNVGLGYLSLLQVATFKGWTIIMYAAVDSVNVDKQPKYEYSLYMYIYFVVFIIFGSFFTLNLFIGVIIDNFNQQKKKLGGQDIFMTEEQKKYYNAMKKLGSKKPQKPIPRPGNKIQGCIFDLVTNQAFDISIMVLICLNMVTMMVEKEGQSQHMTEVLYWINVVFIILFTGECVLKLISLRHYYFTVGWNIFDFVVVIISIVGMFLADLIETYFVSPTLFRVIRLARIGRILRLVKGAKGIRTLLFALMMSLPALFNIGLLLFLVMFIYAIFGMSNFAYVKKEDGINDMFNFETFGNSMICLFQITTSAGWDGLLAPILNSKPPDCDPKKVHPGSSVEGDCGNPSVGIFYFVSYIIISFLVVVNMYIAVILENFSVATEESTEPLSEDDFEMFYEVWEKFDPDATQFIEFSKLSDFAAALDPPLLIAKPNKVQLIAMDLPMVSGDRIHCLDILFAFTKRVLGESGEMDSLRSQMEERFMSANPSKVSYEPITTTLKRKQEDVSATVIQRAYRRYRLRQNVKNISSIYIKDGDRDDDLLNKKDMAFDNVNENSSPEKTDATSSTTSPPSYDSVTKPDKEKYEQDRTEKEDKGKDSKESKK

| IC50 [nM] | Compound |
| --- | --- |
| < 50 | N#Cc1cc(S(=O)(=O)Nc2nccs2)ccc1Oc1cnc(-c2ccccc2)cc1-c1ccoc1 [Example 1, 3-cyano-4-(4-(furan-3-yl)-6-phenylpyridin-3-yloxy)-N-(thiazol-2-yl)benzenesolfonamide] |
| > 100 | Cn1nccc1-c1cc(-c2ccccc2)ncc1Oc1ccc(S(=O)(=O)Nc2nccs2)cc1C#N [Example 2] |
| < 50 | N#Cc1cc(S(=O)(=O)Nc2ncns2)ccc1Oc1cnc(-c2ccccc2)cc1-c1ccoc1 [Example 3, 3-cyano-4-(4-(furan-3-yl)-6-phenylpyridin-3-yloxy)-N-(1,2,4-thiadiazol-5-yl)benzenesulfonamide] |
| 51 to 100 | Cn1nccc1-c1cc(-c2ccccc2)ncc1Oc1ccc(S(=O)(=O)Nc2ncns2)cc1C#N [Example 4, 3-cyano-4-((4-(1-methyl-1H-pyrazol-5-yl)-6-phenylpyridin-3-yl)oxy)-N-(1,2,4-thiadiazol-5-yl)benzenesulfonamide] |
| < 50 | N#Cc1cc(S(=O)(=O)Nc2nccs2)ccc1Oc1cnc(-c2cccc(F)c2)cc1-c1ccoc1 [Example 5, 3-cyano-4-(6-(3-fluorophenyl)-4-(furan-3-yl)pyridin-3-yloxy)-N-(thiazol-2-yl)benzenesulfonamide] |
| > 100 | N#Cc1cc(S(=O)(=O)Nc2nccs2)ccc1Oc1cnc(-c2ccccc2F)cc1-c1ccoc1 [Example 6, 3-cyano-4-(6-(2-fluorophenyl)-4-(furan-3-yl)pyridin-3-yloxy)-N-(thiazol-2-yl)benzenesulfonamide] |
| 51 to 100 | N#Cc1cc(S(=O)(=O)Nc2nccs2)ccc1Oc1cnc(-c2ccc(F)cc2)cc1-c1ccoc1 [Example 7, 3-cyano-4-(6-(4-fluorophenyl)-4-(furan-3-yl)pyridin-3-yloxy)-N-(thiazol-2-yl)benzenesulfonamide] |
| > 100 | N#Cc1cc(S(=O)(=O)Nc2nccs2)ccc1Oc1cnc(-c2cccc(C(F)(F)F)c2)cc1-c1ccoc1 [Example 8, 3-cyano-4-(4-(furan-3-yl)-6-(3-(trifluoromethyl)phenyl)pyridin-3-yloxy)-N-(thiazol-2-yl)benzenesulfonamide] |
| 51 to 100 | N#Cc1cc(S(=O)(=O)Nc2nccs2)ccc1Oc1cnc(-c2ccnc(F)c2)cc1-c1ccoc1 [Example 9, 3-cyano-4-(2′-fluoro-4-(furan-3-yl)-2,4′-bipyridin-5-yloxy)-N-(thiazol-2-yl)benzenesulfonamide] |
| 51 to 100 | N#Cc1cc(S(=O)(=O)Nc2nccs2)ccc1Oc1cnc(-c2cccnc2F)cc1-c1ccoc1 [Example 10, 3-cyano-4-(2′-fluoro-4-(furan-3-yl)-2,3′-bipyridin-5-yloxy)-N-(thiazol-2-yl)benzenesulfonamide] |
| 51 to 100 | N#Cc1cc(S(=O)(=O)Nc2nccs2)ccc1Oc1cnc(-c2ccc(F)nc2)cc1-c1ccoc1 [Example 11, 3-cyano-4-(6′-fluoro-4-(furan-3-yl)-2,3′-bipyridin-5-yloxy)-N-(thiazol-2-yl)benzenesulfonamide] |
| < 50 | N#Cc1cc(S(=O)(=O)Nc2nccs2)ccc1Oc1cnc(-c2ccc(F)nc2F)cc1-c1ccoc1 [Example 12, 3-cyano-4-(2′,6′-difluoro-4-(furan-3-yl)-2,3′-bipyridin-5-yloxy)-N-(thiazol-2-yl)benzenesulfonamide] |
| > 100 | N#Cc1cc(S(=O)(=O)Nc2nccs2)ccc1Oc1cnc(-c2cccnc2)cc1-c1ccoc1 [Example 13, 3-cyano-4-(4-(furan-3-yl)-2,3′-bipyridin-5-yloxy)-N-(thiazol-2-yl)benzenesulfonamide] |
| > 100 | N#Cc1cc(S(=O)(=O)Nc2nccs2)ccc1Oc1cnc(-c2ccncc2)cc1-c1ccoc1 [Example 14, 3-cyano-4-(4-(furan-3-yl)-2,4′-bipyridin-5-yloxy)-N-(thiazol-2-yl)benzenesulfonamide] |
| > 100 | N#Cc1cc(S(=O)(=O)Nc2nccs2)ccc1Oc1cnc(-c2cncnc2)cc1-c1ccoc1 [Example 15, 3-cyano-4-(4-(furan-3-yl)-6-(pyrimidin-5-yl)pyridin-3-yloxy)-N-(thiazol-2-yl)benzenesulfonamide] |
| < 50 | N#Cc1cc(S(=O)(=O)Nc2nccs2)ccc1Oc1cnc(-c2ccoc2)cc1-c1ccoc1 [Example 16, 3-cyano-4-((4,6-di(furan-3-yl)pyridin-3-yl)oxy)-N-(thiazol-2-yl)benzenesulfonamide] |

| IC50 [nM] | Compound |
| --- | --- |
| > 100 | O=S(=O)(Nc1nccs1)c1ccc(Oc2cnc(-c3ccoc3)cc2-c2ccoc2)c(F)c1 [Example 17, 4-((4,6-di(furan-3-yl)pyridin-3-yl)oxy)-3-fluoro-N-(thiazol-2-yl)benzenesulfonamide] |
| > 100 | Cn1nccc1-c1cc(-c2cccnc2F)ncc1Oc1ccc(S(=O)(=O)Nc2nccs2)cc1C#N [Example 18, 3-cyano-4-((2′-fluoro-4-(1-methyl-1H-pyrazol-5-yl)-[2,3′-bipyridin]-5-yl)oxy)-N-(thiazol-2-yl)benzenesulfonamide] |
| > 100 | Cn1nccc1-c1cc(-c2ccc(F)nc2)ncc1Oc1ccc(S(=O)(=O)Nc2nccs2)cc1C#N [Example 19, 3-cyano-4-((6′-fluoro-4-(1-methyl-1H-pyrazol-5-yl)-[2,3′-bipyridin]-5-yl)oxy)-N-(thiazol-2-yl)benzenesulfonamide] |
| > 100 | N#Cc1cc(S(=O)(=O)Nc2nccs2)ccc1Oc1cnc(-c2ccsc2)cc1-c1ccoc1 [Example 20, 3-cyano-4-((4-(furan-3-yl)-6-(thiophen-3-yl)pyridin-3-yl)oxy)-N-(thiazol-2-yl)benzenesulfonamide] |
| > 100 | Cn1nccc1-c1cc(-c2cccnc2)ncc1Oc1ccc(S(=O)(=O)Nc2nccs2)cc1F [Example 21, 3-fluoro-4-((4-(1-methyl-1H-pyrazol-5-yl)-[2,3′-bipyridin]-5-yl)oxy)-N-(thiazol-2-yl)benzenesulfonamide] |
| 51 to 100 | Cn1nccc1-c1cc(-c2ccsc2)ncc1Oc1ccc(S(=O)(=O)Nc2nccs2)cc1F [Example 22, 3-fluoro-4-((4-(1-methyl-1H-pyrazol-5-yl)-6-(thiophen-3-yl)pyridin-3-yl)oxy)-N-(thiazol-2-yl)benzenesulfonamide] |
| > 100 | Cn1nccc1-c1cc(-c2ccc(F)cc2)ncc1Oc1ccc(S(=O)(=O)Nc2nccs2)cc1C#N [Example 23, 3-cyano-4-((6-(4-fluorophenyl)-4-(1-methyl-1H-pyrazol-5-yl)pyridin-3-yl)oxy)-N-(thiazol-2-yl)benzenesulfonamide] |
| > 100 | Cn1nccc1-c1cc(-c2ccccc2F)ncc1Oc1ccc(S(=O)(=O)Nc2nccs2)cc1C#N [Example 24, 3-cyano-4-((6-(2-fluorophenyl)-4-(1-methyl-1H-pyrazol-5-yl)pyridin-3-yl)oxy)-N-(thiazol-2-yl)benzenesulfonamide] |
| > 100 | Cn1nccc1-c1cc(-c2ccoc2)ncc1Oc1ccc(S(=O)(=O)Nc2nccs2)cc1C#N [Example 25, 3-cyano-4-((6-(furan-3-yl)-4-(1-methyl-1H-pyrazol-5-yl)pyridin-3-yl)oxy)-N-(thiazol-2-yl)benzenesulfonamide] |
| 51 to 100 | Cn1nccc1-c1cc(-c2cccc(F)c2)ncc1Oc1ccc(S(=O)(=O)Nc2nccs2)cc1C#N [Example 26, 3-cyano-4-((6-(3-fluorophenyl)-4-(1-methyl-1H-pyrazol-5-yl)pyridin-3-yl)oxy)-N-(thiazol-2-yl)benzenesulfonamide] |
| > 100 | Cn1nccc1-c1cc(-c2ccnc(F)c2)ncc1Oc1ccc(S(=O)(=O)Nc2nccs2)cc1C#N [Example 27, 3-cyano-4-((2′-fluoro-4-(1-methyl-1H-pyrazol-5-yl)-[2,4′-bipyridin]-5-yl)oxy)-N-(thiazol-2-yl)benzenesulfonamide] |
| > 100 | O=S(=O)(Nc1nccs1)c1ccc(Oc2cnc(-c3ccoc3)cc2-c2ccoc2)cc1 [Example 28, 4-((4,6-di(furan-3-yl)pyridin-3-yl)oxy)-N-(thiazol-2-yl)benzenesulfonamide] |
| > 100 | N#Cc1cc(S(=O)(=O)Nc2nccs2)ccc1Oc1cnc(-c2ccccc2)cc1-c1cccnc1F [Example 29, 3-cyano-4-((2-fluoro-6′-phenyl-[3,4′-bipyridin]-3′-yl)oxy)-N-(thiazol-2-yl)benzenesulfonamide] |
| > 100 | N#Cc1cc(S(=O)(=O)Nc2nccs2)ccc1Oc1cnc(-c2ccccc2)cc1-c1ccc(F)nc1 [Example 30, 3-cyano-4-((6-fluoro-6′-phenyl-[3,4′-bipyridin]-3′-yl)oxy)-N-(thiazol-2-yl)benzenesulfonamide] |
| 51 to 100 | N#Cc1cc(S(=O)(=O)Nc2nccs2)ccc1Oc1cnc(-c2ccccc2)cc1-c1ccnc(F)c1 [Example 31, 3-cyano-4-((2′-fluoro-6-phenyl-[4,4′-bipyridin]-3-yl)oxy)-N-(thiazol-2-yl)benzenesulfonamide] |
